Data from patent US20190016697A1, “CONFIGURATIONAL STEREOISOMER OF DIFETHIALONE, COMPOSITION AND RODENTICIDE BAIT COMPRISING SAME, AND METHOD FOR CONTROLLING TARGET RODENT PESTS” (priority 2015, published 2019).
Read-outs that look alike come from different tables or passages of the source.

Assay type: in vivo, Rattus norvegicus
Settings: about 3.4 mg difethialone per kg per os (homo/hetero 4/6, each racemic), mean of six male and female rats, daily vitamin K1
Description: C. Extraction of Difethialone from the Liver of Rats Treated with Difethialone for the Purpose of Analysis of the Various Enantiomers of Difethialone
About 0.525 g (±0.025 g) of rat liver is weighed out accurately and placed in a 50 mL polypropylene tube. 10 mL of acetone are added and the suspension is homogenized using an Ultra-Turrax® homogenizer/disperser for a time of about 30 seconds. The homogenizer/disperser shaft is rinsed with hot water and then twice with 20 mL of acetone in a polypropylene tube. The homogenate is centrifuged for 5 minutes at a centrifugation speed of 3000 rpm (revolutions per minute). The supernatant is collected and transferred into a test tube. The sample is subjected to evaporation under a stream of nitrogen (N2) at a temperature of 40° C. so as to form a dry extract.
1 mL of acetonitrile is added to the tube containing the dry extract so as to dissolve it. The acetonitrile solution is washed twice successively with 1 mL of hexane. The lipid-free extract is dried under a stream of nitrogen (N2) at a temperature of 40° C. and is then taken up in 0.5 mL of methanol and dissolved by vortex stirring. 0.5 mL of ultra-pure (Milli-Q) water is then added. The sample is vortex-homogenized.
1 mL of dichloromethane (CH2Cl2), then 1 mL of methanol (CH3OH), then 1 mL of ultra-pure (Milli-Q) water are passed through an Oasis HLB 1 cc cartridge (WAT094225, Waters). The lipid-free liver extract (1 mL MeOH/Milli-Q H2O) containing difethialone is then loaded onto the top of the preconditioned cartridge. The liver extract penetrates through the cartridge by gravity on contact with the solid phase of the cartridge. 1 mL of washing solution formed from methanol (CH3OH) and ultra-pure water (H2O) in a 90/10 volume proportion is loaded onto the top of the cartridge. The cartridge is dried by suction under vacuum connected to the bottom of the cartridge. 1 mL of eluting solution formed from dichloromethane (CH2Cl2) and methanol (CH3OH) in a 90/10 volume proportion is then loaded onto the top of the cartridge and an eluate comprising difethialone is collected at the bottom of the cartridge. The solvent of the eluate is evaporated off under a stream of nitrogen (N2) at a temperature of 40° C. The sample is taken up in 0.5 mL of acetonitrile (NC-CH3) and the acetonitrile solution containing difethialone is filtered through a 0.2 μm filter.
The acetonitrile solution containing difethialone is analysed by high-pressure liquid chromatography on a LUX® Cellulose-3 chiral column (150×2 mm, particle size of 3 μm) (Phenomenex, Le Pecq, France) as described in point A2) above. The retention time value (t1) of the laevorotatory enantiomer of said homo-stereoisomer of difethialone according to the invention is between 7.8 minutes and 8.4 minutes (the maximum value of the peak corresponding to the […] enantiomer of said homo-stereoisomer being about 8.1 minutes, as described in FIG. 1), depending on the operating conditions, especially depending on the column temperature conditions. The retention time value (t4) of the dextrorotatory enantiomer of said homo-stereoisomer is between 13.3 minutes and 15.1 minutes (the maximum value of the peak corresponding to the […] enantiomer of said homo-stereoisomer being about 14.4 minutes), depending on the operating conditions, especially depending on the column temperature conditions. The retention time value (t3) of the dextrorotatory enantiomer of said hetero-stereoisomer of difethialone is between 11.2 minutes and 12.3 minutes (the maximum value of the peak corresponding to the dextrorotatory enantiomer of said hetero-stereoisomer being about 11.7 minutes), depending on the operating conditions, especially depending on the column temperature conditions. […]

O=c1sc2ccccc2c(O)c1C1CC(c2ccc(-c3ccc(Br)cc3)cc2)Cc2ccccc21 (centres unmarked) [DFN-Hetero-dextro]
Hepatic content (4 hours after tube-feeding): 10589.5 ng/g
Hepatic content (9 hours after tube-feeding): 12155.5 ng/g
Hepatic content (24 hours after tube-feeding): 8102 ng/g
Hepatic content (48 hours after tube-feeding): 7974.5 ng/g
Hepatic content (120 hours after tube-feeding): 5431.5 ng/g
Hepatic content (168 hours after tube-feeding): 3011 ng/g
Hepatic content (216 hours after tube-feeding): 4030.5 ng/g

O=c1sc2ccccc2c(O)c1C1CC(c2ccc(-c3ccc(Br)cc3)cc2)Cc2ccccc21 (centres unmarked) [DFN-Hetero-laevo]
Hepatic content (4 hours after tube-feeding): 5380.5 ng/g
Hepatic content (9 hours after tube-feeding): 5869.5 ng/g
Hepatic content (24 hours after tube-feeding): 3613.5 ng/g
Hepatic content (48 hours after tube-feeding): 2804 ng/g
Hepatic content (120 hours after tube-feeding): 1211 ng/g
Hepatic content (168 hours after tube-feeding): 392.5 ng/g
Hepatic content (216 hours after tube-feeding): 545 ng/g
